The structures appear in SMILES notation. Active and inactive are the calls of the source.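 The calls were made as follows: active = compound whose fitted growth curve, scaled so untreated is 0 and control 100, reaches 40 within the tested doses; inconclusive = flat curve between 30 and 70 percent, or unreliable fit; inactive = the rest, including drops in growth.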

The source of these data is PubChem BioAssay AID602280 (Broad Institute, 2012).

For this assay, the system named is S. cerevisiae GAL-BEM3 growth rescue, OD600, 48 h. Put plainly: rescue of BEM3-induced yeast toxicity, dose response, S. cerevisiae, dry powder, plate reader (AID 602280).
Take `Cc1ccccc1CSc1nsc(N)n1`: the AC40 was > 26 µM (inactive).

Consider `O=c1c2ccccc2[nH]c(=S)n1CCC1=CCCCC1`, for which the AC40 was 22 µM. The value for `CC(C)c1ccc(C2NC(=O)c3ccccc3O2)cc1` (centres undefined) was 2.3 µM; that for `Fc1cc(NCc2ccccc2)nc(NCc2ccccc2)n1` was 8.75 µM.
